Data taken from patent publication US20230107216A1, “PANTETHEINE DERIVATIVES AND USES THEREOF” (Comet Therapeutics, Inc., priority 2018, published 2023).
Like-named read-outs stand apart in the source and are kept apart here.

Legend:
[1] = test system: Venular Endothelial cells (HUVEC) (4H system); assay: BioMAP 4H system (IL-4 and histamine); assay type: cell-based, human; conditions: procedure of Example 826; for % decrease in Eotaxin-3: 1 uM
[2] = test system: Methylmalonic Acidemia (MMA) primary fibroblasts Tsi 5224; assay: Mitochondrial respiration, XFe96 Extracellular Flux Analyzer (OCR/ECAR), MMA fibroblasts Tsi 5224; assay type: cell-based; conditions: Homo sapiens, Fibroblast, read-out: Increase in Maximal Respiratory Capacity AUC;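 note: relative to vehicle DMSO control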
Procedure: The effect of the compounds of the present disclosure on mitochondrial respiration was measured with a XFe96 Extracellular Flux Analyzer (Seahorse Bioscience, Agilent Technologies) and Oxygen consumption Rate (OCR) and Extracellular acidification rate (ECAR) determined.
Cell culture and treatments. Primary adherent fibroblasts were cultured in minimum essential medium (MEM) (Gibco, 25030081) supplemented with 2 mM L-Glutamine (Gibco, 25030081), 15% fetal bovine serum (FBS) (Gibco, 26400044) and 1% penicillin/streptomycin (Gibco, 5140122) at 37° C. and 5% CO2. Cells were collected for either passaging or experiment at ˜70-80% confluence. Cells were obtained by trypsinization and seeded at 20000 cells/well in cell culture microplates (Seahorse Bioscience, 101085-004) and allowed to adhere for 16 hours in culture media.
By profiling different primary cells and/or optimizing their culture media or environmental components one can select cell lines and/or conditions that are appropriate for the biological or disease model. In the present example, 24 hours prior to OCR and ECAR profiling, media was changed to Dulbecco's Modified Eagle Medium (DMEM, Agilent Seahorse 103575-100) with the appropriate supplements for the different primary cells (10 mM glucose, 2 mM L-glutamine, 1 mM pyruvate, 10% FBS; 1 mM glucose, 2 mM L-glutamine, 1 mM pyruvate, 10% FBS; 10 mM glucose, 10% FBS; 5 mM glucose 10% FBS; 1 mM glucose 10% FBS). Cells used in this example were: Propionic Acidemia (PA) (GM00371, GM03590 Coriell Institute for Medical Research, Tsi 6337, Tsi 4626, Tsi 3618 Trans-Hit Bio), Methylmalonic Acidemia (MMA) (GM01673, Coriell Institute for Medical Research, Tsi 5224 Trans-Hit Bio), Branched chain ketoacid dehydrogenase kinase (BCKDK) (GM00612, GM00649 Coriell Institute for Medical Research), Subnormal activation of pyruvate dehydrogenase complex (PDH) (GM01503 Coriell Institute for Medical Research), Very long-chain acyl-CoA dehydrogenase (VLCAD) (GM17475), Leigh Syndrome (LS) (GM03672, GM13411 Coriell Institute for Medical Research), Pyruvate Carboxylase Deficiency (PC) (GM00444 Coriell Institute for Medical Research), Glutaric Acidemia-I (GA) (GM10653), Friedreich's Ataxia (FXN) (GM04078 Coriell Institute for Medical Research, Huntington's disease (HD) (GM21756 Coriell Institute for Medical Research), Ornithine Transcarbamylase Deficiency (OTC) (GM12756 Coriell Institute for Medical Research), Kearns-Sayre Syndrome (KSS) (GM06225 Coriell Institute for Medical Research).
One hour before the assay, the cells were washed with freshly prepared unbuffered serum free-Seahorse XF Assay medium (Seahorse Bioscience, North America, USA, 103575-100) with the same supplements as for the previous 24 hour incubation.
After baseline measurements of OCR, cells were challenged with compounds of the present disclosure at different concentrations (10 to 50 μM) or vehicle (DMSO, 0.1%) and a post-compound baseline was recorded. OCR was measured after sequentially adding to each well 1 μg/ml oligomycin (inhibitor of ATP synthase Sigma-Aldrich, 753531), then maximal OCR was determined with carbonyl cyanide 4-(trifluoromethoxy) phenylhydrazone (FCCP, Sigma-Aldrich, C2920), (uncoupler of oxidative phosphorylation) and 0.5 μM of rotenone (Sigma-Aldrich, R8875) plus antimycin A (Sigma-Aldrich, A8674) (inhibitors of mitochondrial complex I and III) for determination of rotenone-antimycin insensitive respiration together with Hoechst for nuclear staining in situ when normalized to cell counts. After the analysis and nuclear staining, the XFp microplate was transferred to the Cytation 5, and the nuclear images were captured, the individual nuclei were identified and counted by BioTek Gen5 software. Data were expressed as pmol of O2 per minute and normalized by nuclear staining and baselined to pre-compound addition.
Assay conditions were as stated below.
Assay specifics on assay conditions are indicated below when readouts were normalized to cell counts. […]

HepG2 cells = assay: Mitochondrial membrane potential (MITO-ID MP detection Kit); assay type: cell-based; conditions: Homo sapiens, 168 h, 7 days
Procedure: HepG2 cells (ATCC, HB-8065) were cultured (5% CO2 at 37° C.) and plated in Poly-D-Lysine 384-Well plate (Corning, 356663) at a density of 160000 cells/mL in 50 μL/well. Culture and assay media consisted of DMEM (Gibco, 11995-065) supplemented with 1% Penicillin-Streptomycin and 10% FBS (Hyclone, SV30087.03).
MITO-ID® MP detection Kit (ENZ-51018) was used and manufacturer instructions followed. Cells were allowed to settle for 30 min at room temperature and further incubated overnight (37° C. and 5% CO2) for adherence. Next day, test compounds (50-10 μM) and vehicle DMSO (0.2%) were added at the recommended volumes to the 384-well plate for 7 days without media change using a Tecan compound dispenser. All the solutions and wash buffers were prepared and dispensed according to manufacturer's volumes for a 384-well plate format.

[3] = test system: primary fibroblasts (healthy controls and PA, MMA, BCKDK, PDH, VLCAD, LS, PC, GA, VLCFA, KSS, FXN, HD); assay: Measurement of ROS (H2DCFDA) in primary fibroblasts; assay type: cell-based, human; conditions: Homo sapiens, procedure Example 812
Procedure: Primary adherent fibroblasts were cultured in minimum essential medium (MEM) (Gibco, 25030081) supplemented with 2 mM L-Glutamine (Gibco, 25030081), 15% fetal bovine serum (FBS) (Gibco, 26400044) and 1% penicillin/streptomycin (Gibco, 5140122) at 37° C. and 5% CO2. Cells were collected for either passaging or experiment at ˜70-80% confluence. Cells were obtained by trypsinization and seeded in cell culture microplates either white plate (Thermo Fisher Scientific, 152028) for luminescent measurement or black plate (Thermo Fisher Scientific, 165305) for fluorescent based read out for different assays listed below. Cells were obtained by trypsinization and […] were seeded and allowed to adhere for 16-18 hours to have confluency around 70-80% in the cell well with culture media. After 24 hours prior to measurements (37° C., 5% CO2) media was changed to Dulbecco's Modified Eagle Medium (DMEM, Agilent Seahorse cat #103575-100) with the appropriate supplements as stated below.
Primary fibroblasts assayed were Healthy controls (GM00041, GM05659, GM23974 Coriell Institute for Medical Research), Propionic Acidemia (PA) (GM00371, GM03590 Coriell Institute for Medical Research, Tsi 6337 Trans-Hit Bio), Methylmalonic Acidemia (MMA) (GM01673, Coriell Institute for Medical Research, Tsi 5224, Tsi 4290 Trans-Hit Bio), Branched chain ketoacid dehydrogenase kinase (BCKDK) (GM00612, GM00649 Coriell Institute for Medical Research), Subnormal activation of pyruvate dehydrogenase complex (PDH) (GM01503 Coriell Institute for Medical Research), Very long-chain acyl-CoA dehydrogenase (VLCAD) (GM17475), Leigh Syndrome (LS) (GM03672, GM13411 Coriell Institute for Medical Research), Pyruvate Carboxylase Deficiency (PC) (GM00444 Coriell Institute for Medical Research), Glutaric Acidemia-I (GA), Impaired VLCFA oxidation (VLCFA) (GM13262), Kearns-Sayre Syndrome (KSS) (GM06225 Coriell Institute for Medical Research), Friedreich's Ataxia (FXN), Huntington's disease (HD) (GM21756 Coriell Institute for Medical Research). Next, cells were treated with compounds (10 μM) and ROS H2DCFDA (22 μM) dye for 2 hours in PA, MMA lines and for 24h for the other fibroblast lines. Kinetic read was started immediately with a i3x plate reader (492/527 nm) for 60 minutes.
A total dead cell count was performed as described in Example 817 and only alive cells were used for analysis.

[4] = test system: monocyte-derived M1 macrophages; assay: M1 differentiation assay (macrophage TNFα, IL6, IL10 ELISA, FACS); assay type: cell-based, human; conditions: Homo sapiens, Macrophage
Procedure: Monocytes were isolated by positive isolation with CD14+ microbeads (Miltenyi, 130-050-201). Monocytes were 99% viable and were 96% purity as analyzed by FACS and CD14+ (BD, 563561). 100,000 monocytes along with compounds at the dose of 10 and 50 μM were allowed to differentiate to macrophages with 10 ng/ml GMCSF (R&D, 15-GM-050/CF) in RPMI complete media (Invitrogen, 22400089) with 15% FBS (Hyclone SV30087.03) and 1% Penicillin-Streptomycin (Gibco, 15140-122). On day 2 and 4 half the media was refreshed with fresh GM-CSF and compounds at 10 and 50 μM dose. On day 6 the macrophages were matured with GMCSF, IFNγ (R&D 285-IF-100/CF) and LPS (Sigma, L6143) in the presence of 10 μM and 50 μM of compounds. After 24h, supernatant was collected for the measurement of TNFα (DKW, 1117202) IL6 (DKW, 1110602), IL10 (DKW, 1110003) by ELISA. Macrophages were detached gently on ice with EDTA (Invitrogen, 15575-038) and analyzed by FACS (BD LSR Fortessa, 853492). Cells were stained for live/dead dye, surface and intracellular markers with fixation/permeabilization solution (BD, 554714) and ALIVE/DEAD™ Fixable Near-IR Dead Cell Stain Kit (BD, L34976), mouse anti human CD86 APC (BD, 555660), mouse anti-human CD163 PE (BD, 556018), mouse anti-human CD68 FITC (BD, 562117) or isotype controls anti-mouse IgG1 κ PE (BD, 559320) and anti-mouse IgG1 κ APC (BD, Anti mouse IgG1 κ APC (BD, 55571). Mature M1 macrophages were defined as CD86+CD68+CD163− and increase in TNFα, IL6, and decrease in IL-10.

[5] = test system: Peripheral blood mononuclear cells co-cultured with venular endothelial cells (HUVEC) (LPS system); assay: BioMAP LPS system; assay type: cell-based, human; conditions: Homo sapiens, HUVEC, 24 h, 10 uM, procedure of Example 827
[6] = MMA Tsi 5224, assay condition A (10 mM glucose, 2 mM L-glutamine, 1 mM pyruvate, 10% FBS)
[7] = Fibroblast, BCKD GM00612, Assay Condition A, read-out: Decreased ROS by at least 10%

## C/C=C/C(=O)CC(=O)SCCNC(=O)CCNC(=O)[C@H](O)C(C)(C)CO [Compound 36, (2R)-2,4-dihydroxy-3,3-dimethyl-N-[2-[(2-[[(4E)-3-oxohex-4-enoyl]sulfanyl]ethyl)carbamoyl]ethyl]butanamide]
[1]
  % decrease in Eotaxin-3: ≥10%
[2]; [6]
  activation at 10 µM: ≥ 10%

## CC(C)(CO)[C@@H](O)C(=O)NCCC(=O)NCCSC(=O)C(O)CO (stereo partly shown) [Compound 399]
[2]; MMA Tsi 5224, assay condition D (1 mM glucose, 10% FBS)
  activation at 10 µM: ≥ 10%
HepG2 cells; 10 uM, read-out: % decrease in Mitochondrial Membrane Potential
  inhibition at 10 µM: > 30%
[3]; [7]
  inhibition at 10 µM: ≥ 10%

## COC(=O)C[C@H](N)C(=O)SCCNC(=O)CCNC(=O)[C@H](O)C(C)(C)CO [Compound 451]
[1]
  % decrease in Eotaxin-3: ≥10%

## CC(=O)NCCCC(=O)OCC(C)(C)[C@@H](O)C(=O)NCCC(=O)NCCSC(=O)CC(=O)NCCc1c[nH]cn1 [Compound 633]
[1]
  % decrease in Eotaxin-3: ≥10%

## CC1(C)OC(=O)C(CC(=O)SCCNC(=O)CCNC(=O)[C@H](O)C(C)(C)CO)O1 (stereo partly drawn) [Compound 1238, S-(2-(3-((R)-2,4-dihydroxy-3,3-dimethylbutanamido)propanamido)ethyl) 2-(2,2-dimethyl-5-oxo-1,3-dioxolan-4-yl)ethanethioate]
[2]; [6]
  activation at 10 µM: ≥ 10%
[4]; 10 uM, read-out: % decrease in Macrophage TNFα Secretion
  inhibition at 10 µM: ≥ 30%
HepG2 cells; 50 uM, read-out: % increase in Mitochondrial Membrane Potential
  activation at 50 µM: 20%

## CCC(=O)C(C)C(=O)SCCNC(=O)CCNC(=O)[C@H](O)C(C)(C)CO (stereo partly drawn) [Compound 1251, S-(2-(3-((R)-2,4-dihydroxy-3,3-dimethylbutanamido)propanamido)ethyl) 2-methyl-3-oxopentanethioate]
[4]; read-out: % decrease in Macrophage IL-6 Secretion
  inhibition at 50 µM: ≥ 30%
[4]; read-out: % decrease in Macrophage TNFα Secretion
  inhibition at 50 µM: ≥ 30%
HepG2 cells; 50 uM, read-out: % decrease in Mitochondrial Membrane Potential
  inhibition at 50 µM: > 30%
[3]; [7]
  inhibition at 10 µM: ≥ 10%
[3]; Fibroblast, VLCFA GM13262, Assay Condition C, read-out: Decreased ROS by at least 30%
  inhibition at 10 µM: ≥ 30%
[3]; FXN GM04078, Assay Condition C, read-out: Decreased ROS by at least 10%
  inhibition at 10 µM: ≥ 10%
[3]; FXN GM04078, Assay Condition C, read-out: Decreased ROS by at least 30%
  inhibition at 10 µM: ≥ 30%

## CC(C)(CO)[C@@H](O)C(=O)NCCC(=O)NCCS [Prep Ex 5]
[1]; Homo sapiens, HUVEC, 24 h, 10 uM, read-out: % decrease in E-Selectin
  inhibition at 10 µM: ≥ 20%
[5]; read-out: % decrease in IL-1α
  inhibition at 10 µM: ≥ 20%
[5]; read-out: % decrease in IL-8
  inhibition at 10 µM: ≥ 10%
[5]; read-out: % decrease in TissueFactor
  inhibition at 10 µM: ≥ 10%
[5]; read-out: % increase in sTNFα
  activation at 10 µM: ≥ 20%
